Our source for the TGI and GI50 values is PubChem BioAssay (NCI).

What is called TGI is the concentration at which net growth stops. Higher therefore signals lower sensitivity of the cells. The term GI50 denotes the concentration giving 50% growth inhibition.

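Grown in 96-well plates, cells were treated for 48 hours with each compound at five concentrations. Insufficient inhibition: endpoint recorded as highest concentration tested. The concentration for 50% growth inhibition is given as GI50. Definition used: TGI = concentration required for complete inhibition of growth.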

Some test systems named below: T-47D breast; SF-539 CNS; SK-MEL-28 melanoma; NCI-H23 lung; UACC-62 melanoma; BT-549 breast; CAKI-1 renal; IGROV1 ovarian; SF-268 CNS; SK-MEL-5 melanoma.
Test in all cases: DTP human tumour cell line panel, 48 h

As for `COc1ccc(/C=C(/C)[N+](=O)[O-])cc1`, the concentration for total growth inhibition (TGI) with T-47D breast was greater than 100 µM; with SF-539 CNS, 3.68 µM; in the test with SK-MEL-28 melanoma, 8.14 µM; in the test with NCI-H23 lung, 4.35 µM; with UACC-62 melanoma it was 3.29 µM; in the test on BT-549 breast, 6.91 µM. Further, the TGI came out at 6.07 µM with CAKI-1 renal, 6.2 µM in the test with IGROV1 ovarian, 9.42 µM in the test with SF-268 CNS and 5.92 µM in the test on SK-MEL-5 melanoma.

In the case of `CCc1c(O)c2c(c(O)c1C(C)=O)C(=O)c1c(cc(O)c(C(=O)O)c1C(=O)O)C2=O`, the concentration for total growth inhibition (TGI) in the test on T-47D breast, in the test on SF-539 CNS, with SK-MEL-28 melanoma, in the test on NCI-H23 lung, with UACC-62 melanoma and with BT-549 breast was greater than 100 µM each time. For the same compound, the concentration for total growth inhibition (TGI) with CAKI-1 renal, in the test with IGROV1 ovarian, in the test on SF-268 CNS and with SK-MEL-5 melanoma was greater than 100 µM each time.

With `CC(O)(CNS(=O)(=O)c1ccccc1)c1ccccc1` (centres undefined), the concentration for total growth inhibition (TGI) in the test on T-47D breast, in the test with SK-MEL-28 melanoma, in the test with NCI-H23 lung, in the test with UACC-62 melanoma, in the test with BT-549 breast and in the test on CAKI-1 renal was greater than 100 µM each time. In addition, the TGI in the test with IGROV1 ovarian, with SF-268 CNS and in the test on SK-MEL-5 melanoma was greater than 100 µM each time.

Take `COc1cc(-c2cc(/C=C3\C(=O)Nc4ccccc43)[nH]n2)cc(OC)c1OC`: the GI50 in the test on T-47D breast is 1.74 µM; in the test on SF-539 CNS it was 3.49 µM; in the test on SK-MEL-28 melanoma it was 2.95 µM; in the test on NCI-H23 lung, 2.78 µM; in the test with UACC-62 melanoma, 1.63 µM; in the test on BT-549 breast, 2.1 µM. Further, the GI50 in the test with IGROV1 ovarian is 3.14 µM; in the test with SF-268 CNS, 3.76 µM; in the test on SK-MEL-5 melanoma it was 1.57 µM. Further, the TGI in the test with T-47D breast was 6.99 µM; with SF-539 CNS, 16.3 µM; in the test on SK-MEL-28 melanoma, 11.3 µM; in the test on NCI-H23 lung, 8.95 µM; in the test with UACC-62 melanoma it was 4.22 µM; in the test on BT-549 breast, 6.58 µM. The TGI turned out to be 14.8 µM with IGROV1 ovarian, 17.2 µM in the test with SF-268 CNS and 3.45 µM with SK-MEL-5 melanoma.

As for `[C-]#[N+][C@]12C(=O)[C@H](CCC1(C)C)C(C)(C)[C@H]1C(=O)N(C)c3cccc2c31`, the GI50 in the test with T-47D breast is 9.41 µM; in the test with SF-539 CNS it was 61.6 µM; in the test with SK-MEL-28 melanoma, greater than 100 µM; in the test with UACC-62 melanoma, 22.8 µM; in the test with BT-549 breast it was 46.2 µM; in the test on CAKI-1 renal it was 51.7 µM. Also, the GI50 in the test with SF-268 CNS was greater than 100 µM; with SK-MEL-5 melanoma it was 9.08 µM. The concentration for total growth inhibition (TGI) in the test with T-47D breast, in the test on SF-539 CNS, in the test with SK-MEL-28 melanoma, in the test on UACC-62 melanoma, in the test on BT-549 breast and with CAKI-1 renal was greater than 100 µM throughout. The TGI with SF-268 CNS and in the test on SK-MEL-5 melanoma was greater than 100 µM throughout.

In the case of `CC1SC(c2c(Cl)cccc2Cl)N(NC(=O)C(O)c2ccccc2)C1=O` (centres undefined), the GI50 is 48.2 µM in the test with T-47D breast; greater than 100 µM with SF-539 CNS; greater than 100 µM in the test on SK-MEL-28 melanoma; 50.2 µM with UACC-62 melanoma; greater than 100 µM with BT-549 breast; 62.1 µM in the test with CAKI-1 renal. The values for the GI50 with IGROV1 ovarian, in the test with SF-268 CNS and in the test on SK-MEL-5 melanoma were 62.9 µM, greater than 100 µM and 68.4 µM, respectively. Also, the concentration for total growth inhibition (TGI) with T-47D breast, in the test on SF-539 CNS, in the test on SK-MEL-28 melanoma, in the test on UACC-62 melanoma, in the test with BT-549 breast and with CAKI-1 renal was greater than 100 µM in each case. The TGI with IGROV1 ovarian, in the test on SF-268 CNS and with SK-MEL-5 melanoma was greater than 100 µM throughout.

Regarding `O=C(NNS(=O)(=O)c1ccc(F)cc1)c1cccnc1Nc1ccc(Cl)cc1Cl`, the GI50 in the test with T-47D breast was 18.7 µM; in the test on SF-539 CNS, 26 µM; in the test with SK-MEL-28 melanoma, 89.2 µM; with NCI-H23 lung, 36.5 µM; with UACC-62 melanoma, 46 µM; in the test with BT-549 breast, 36 µM. In addition, the GI50 in the test on CAKI-1 renal was 31.2 µM; in the test with SF-268 CNS, 45.2 µM; in the test with SK-MEL-5 melanoma it was 25.3 µM. Further, the concentration for total growth inhibition (TGI) in the test with T-47D breast is 98.1 µM; with SF-539 CNS, 73.7 µM; in the test with SK-MEL-28 melanoma, greater than 100 µM; in the test with NCI-H23 lung, greater than 100 µM; with UACC-62 melanoma, greater than 100 µM; in the test on BT-549 breast it was greater than 100 µM. For the same compound, the total growth inhibition concentration (TGI) with CAKI-1 renal is greater than 100 µM; with SF-268 CNS, greater than 100 µM; with SK-MEL-5 melanoma it was 86 µM.

Consider `Cc1ccc(C2C3=C(N=c4s/c(=C/c5ccc(Br)cc5)c(=O)n42)c2ccc4ccccc4c2OCC3)cc1` (centres undefined), for which the GI50 was greater than 100 µM with T-47D breast; greater than 100 µM in the test with SF-539 CNS; greater than 100 µM in the test with SK-MEL-28 melanoma; greater than 100 µM in the test on NCI-H23 lung; 67.9 µM in the test with UACC-62 melanoma; greater than 100 µM with BT-549 breast. In addition, the GI50 in the test with IGROV1 ovarian, with SF-268 CNS and with SK-MEL-5 melanoma was greater than 100 µM each time. Further, the TGI with T-47D breast, in the test with SF-539 CNS, in the test on SK-MEL-28 melanoma, with NCI-H23 lung, in the test with UACC-62 melanoma and with BT-549 breast was greater than 100 µM each time. Besides, the TGI with IGROV1 ovarian, in the test with SF-268 CNS and in the test with SK-MEL-5 melanoma was greater than 100 µM throughout.

On to `C(=C\c1nccc2c1[nH]c1ccccc12)/c1ccccc1`, for which the GI50 in the test with T-47D breast is 3.6 µM; with SF-539 CNS, 1.98 µM; in the test on SK-MEL-28 melanoma, 4.78 µM; with NCI-H23 lung, 3.78 µM; with UACC-62 melanoma it was 3.48 µM; with BT-549 breast, 2.22 µM. In addition, the GI50 in the test with IGROV1 ovarian was 0.664 µM; with SF-268 CNS it was 5.23 µM; in the test on SK-MEL-5 melanoma, 2.27 µM. The total growth inhibition concentration (TGI) in the test on T-47D breast is 28.2 µM; in the test with SF-539 CNS, 4.51 µM; in the test on SK-MEL-28 melanoma, 28.4 µM; with NCI-H23 lung it was greater than 100 µM; in the test with UACC-62 melanoma, 23.9 µM; in the test on BT-549 breast, 10.2 µM. Besides, the total growth inhibition concentration (TGI) is 23.6 µM in the test with IGROV1 ovarian, greater than 100 µM in the test on SF-268 CNS and 8.05 µM in the test on SK-MEL-5 melanoma.

On to `Nc1ccc2ccc(NS(=O)(=O)N3CCCCC3)cc2c1`, for which the GI50 with T-47D breast is 0.381 µM; in the test on SK-MEL-28 melanoma, 0.664 µM; in the test on NCI-H23 lung, 1.53 µM; in the test on UACC-62 melanoma, 0.301 µM; in the test with BT-549 breast, 0.69 µM; in the test on CAKI-1 renal, 0.584 µM. Besides, the GI50 in the test on IGROV1 ovarian was 0.765 µM; with SF-268 CNS it was 1.57 µM; in the test on SK-MEL-5 melanoma, 0.285 µM. Also, the total growth inhibition concentration (TGI) is greater than 75.3 µM in the test with T-47D breast; greater than 100 µM in the test on SK-MEL-28 melanoma; greater than 63.8 µM in the test with NCI-H23 lung; greater than 100 µM in the test with UACC-62 melanoma; greater than 84.3 µM in the test with BT-549 breast; greater than 100 µM in the test on CAKI-1 renal. For the same compound, the TGI with IGROV1 ovarian is greater than 100 µM; with SF-268 CNS, greater than 100 µM; with SK-MEL-5 melanoma, 4.52 µM.

In the case of `COc1cc(C2=NN(c3ccc(S(N)(=O)=O)cc3)C(c3ccc(Cl)cc3)C2)cc(OC)c1OC` (centres undefined), the GI50 with T-47D breast was 1.74 µM; in the test with SF-539 CNS, 5.12 µM; in the test on SK-MEL-28 melanoma, 3.78 µM; with NCI-H23 lung, 5.72 µM; with UACC-62 melanoma, 4.12 µM; in the test with BT-549 breast, 3.8 µM. In addition, the results for the GI50 with IGROV1 ovarian, in the test on SF-268 CNS and in the test on SK-MEL-5 melanoma were 8.09 µM, 6.86 µM and 3.35 µM, respectively. The concentration for total growth inhibition (TGI) with T-47D breast is 14.7 µM; in the test with SF-539 CNS it was greater than 100 µM; in the test with SK-MEL-28 melanoma, greater than 100 µM; in the test on NCI-H23 lung, greater than 100 µM; in the test with UACC-62 melanoma it was greater than 100 µM; in the test with BT-549 breast it was 46.4 µM. Moreover, the results for the total growth inhibition concentration (TGI) with IGROV1 ovarian, in the test on SF-268 CNS and in the test with SK-MEL-5 melanoma were greater than 100 µM, greater than 100 µM and 18 µM, respectively.

Turning to `COC(=O)OCc1ccc2c(c1)C(=O)c1c-2n(CCCBr)c(=O)c2cc([N+](=O)[O-])ccc12`, the GI50 in the test on T-47D breast is greater than 100 µM; with SF-539 CNS, 56 µM; with SK-MEL-28 melanoma it was greater than 100 µM; with UACC-62 melanoma, 33.5 µM; with BT-549 breast, 44.9 µM; in the test on CAKI-1 renal, 35.5 µM. For the same compound, the GI50 with IGROV1 ovarian is 54.3 µM; in the test on SF-268 CNS it was greater than 100 µM; in the test with SK-MEL-5 melanoma, greater than 100 µM. Further, the TGI with T-47D breast was greater than 100 µM; in the test with SF-539 CNS, greater than 100 µM; in the test on SK-MEL-28 melanoma, greater than 100 µM; in the test on UACC-62 melanoma it was greater than 100 µM; in the test on BT-549 breast, greater than 100 µM; with CAKI-1 renal, 75.4 µM. Besides, the TGI with IGROV1 ovarian, in the test on SF-268 CNS and with SK-MEL-5 melanoma was greater than 100 µM each time.

Consider `Cc1cc(C)c2c(SCc3ccc(Cl)cc3Cl)nc(N)nc2n1`, for which the TGI is 47 µM in the test with T-47D breast; greater than 100 µM in the test with SK-MEL-28 melanoma; greater than 100 µM in the test on NCI-H23 lung; greater than 100 µM in the test on UACC-62 melanoma; greater than 100 µM in the test on BT-549 breast; greater than 100 µM with CAKI-1 renal. Further, the total growth inhibition concentration (TGI) with IGROV1 ovarian, with SF-268 CNS and in the test on SK-MEL-5 melanoma was greater than 100 µM in each case.

Turning to `CC(=O)/C=C/C1=C(c2cccs2)c2ccccc2CC1`, the GI50 is 23.7 µM with T-47D breast; 27.5 µM in the test on SF-539 CNS; 22.4 µM in the test with SK-MEL-28 melanoma; 34.3 µM in the test on NCI-H23 lung; 17.6 µM in the test on UACC-62 melanoma; 32.6 µM in the test with BT-549 breast. The GI50 in the test on CAKI-1 renal is 41 µM; in the test on IGROV1 ovarian it was 19.8 µM. Moreover, the TGI is 53.5 µM with T-47D breast; 81 µM in the test on SF-539 CNS; 52.2 µM with SK-MEL-28 melanoma; greater than 100 µM with NCI-H23 lung; 33.2 µM with UACC-62 melanoma; greater than 100 µM in the test with BT-549 breast. Besides, the total growth inhibition concentration (TGI) with CAKI-1 renal is greater than 100 µM; with IGROV1 ovarian, 49.7 µM.
